Tests used:
[1] = molecular target: Serine/threonine-protein kinase 33 (Homo sapiens) (UniProt Q9BYT3); assay: STK33(h) Millipore kinase panel; conditions: Compound concentration 1.0 uM
[2] = molecular target: Insulin receptor-related protein (Homo sapiens) (UniProt P14616); assay: IRR(h) Millipore kinase panel; conditions: Compound concentration 1.0 uM
[3] = molecular target: [Pyruvate dehydrogenase (acetyl-transferring)] kinase isozyme 2, mitochondrial (Homo sapiens) (UniProt Q15119); assay: PDHK2(h) Millipore kinase panel; conditions: Compound concentration 1.0 uM
[4] = molecular target: Mitogen-activated protein kinase kinase kinase 3 (Homo sapiens) (UniProt Q99759); assay: MEKK3(h) Millipore kinase panel; conditions: Compound concentration 1.0 uM
[5] = molecular target: Muscarinic acetylcholine receptor M4 (Homo sapiens) (UniProt P08173); conditions: Compound concentration 10.0 uM
[6] = molecular target: T1, Alpha-2B adrenergic receptor (Homo sapiens) (UniProt P18089); conditions: Compound concentration 10.0 uM
T1 sequence (whole entry): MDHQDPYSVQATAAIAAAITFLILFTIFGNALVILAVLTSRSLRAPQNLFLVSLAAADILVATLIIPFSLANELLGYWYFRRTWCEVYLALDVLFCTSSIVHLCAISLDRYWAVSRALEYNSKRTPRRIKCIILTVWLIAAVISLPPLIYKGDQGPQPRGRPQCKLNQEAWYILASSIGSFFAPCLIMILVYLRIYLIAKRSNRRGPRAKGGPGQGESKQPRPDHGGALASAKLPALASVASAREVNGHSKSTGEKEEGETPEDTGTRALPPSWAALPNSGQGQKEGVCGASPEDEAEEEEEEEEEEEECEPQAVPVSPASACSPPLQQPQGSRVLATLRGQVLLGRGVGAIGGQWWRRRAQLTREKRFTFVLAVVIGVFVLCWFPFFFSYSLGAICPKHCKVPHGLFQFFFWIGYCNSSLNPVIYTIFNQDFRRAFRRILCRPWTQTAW

[7] = molecular target: Eukaryotic translation initiation factor 2-alpha kinase 3 (Homo sapiens) (UniProt Q9NZJ5); assay: PEK(h) Millipore kinase panel; conditions: Compound concentration 1.0 uM
[8] = molecular target: Serine/threonine-protein kinase haspin (Homo sapiens) (UniProt Q8TF76); assay: Haspin(h) Millipore kinase panel; conditions: Compound concentration 1.0 uM
[9] = molecular target: Serine/threonine-protein kinase 24 (Homo sapiens) (UniProt Q9Y6E0); assay: MST3(h) Millipore kinase panel; conditions: Compound concentration 1.0 uM
[10] = molecular target: eIF-2-alpha kinase GCN2 (Homo sapiens) (UniProt Q9P2K8); assay: GCN2(h) Millipore kinase panel; conditions: Compound concentration 1.0 uM
[11] = molecular target: Ribosomal protein S6 kinase beta-1 (Homo sapiens) (UniProt P23443); assay: p70S6K(h) Millipore kinase panel; conditions: Compound concentration 1.0 uM
[12] = molecular target: Alpha-2A adrenergic receptor (Homo sapiens) (UniProt P08913); conditions: Compound concentration 10.0 uM
[13] = molecular target: Serine/threonine-protein kinase PAK 4 (Homo sapiens) (UniProt O96013); assay: PAK4(h) Millipore kinase panel; conditions: Compound concentration 1.0 uM
Sequence of Serine/threonine-protein kinase PAK 4 (Homo sapiens) (O96013 whole entry, looked up): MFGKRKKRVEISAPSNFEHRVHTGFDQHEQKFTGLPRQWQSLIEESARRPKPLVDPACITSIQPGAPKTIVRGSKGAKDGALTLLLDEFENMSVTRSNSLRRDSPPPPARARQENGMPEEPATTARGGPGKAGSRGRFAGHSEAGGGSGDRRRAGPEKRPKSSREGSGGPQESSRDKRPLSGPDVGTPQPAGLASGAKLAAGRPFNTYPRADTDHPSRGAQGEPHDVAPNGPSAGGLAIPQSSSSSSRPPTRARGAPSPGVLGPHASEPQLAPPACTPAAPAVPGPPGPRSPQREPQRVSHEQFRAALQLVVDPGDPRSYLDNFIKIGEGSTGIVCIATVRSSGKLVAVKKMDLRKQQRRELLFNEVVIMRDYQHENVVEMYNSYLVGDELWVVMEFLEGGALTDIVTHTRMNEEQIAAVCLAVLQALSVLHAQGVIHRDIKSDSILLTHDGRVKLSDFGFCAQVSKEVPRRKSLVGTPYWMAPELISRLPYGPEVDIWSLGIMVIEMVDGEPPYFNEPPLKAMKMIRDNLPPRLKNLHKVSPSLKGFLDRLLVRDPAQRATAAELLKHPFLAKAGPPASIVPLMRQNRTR

[14] = molecular target: Rhodopsin kinase GRK7 (Homo sapiens) (UniProt Q8WTQ7); assay: GRK7(h) Millipore kinase panel; conditions: Compound concentration 1.0 uM
[15] = molecular target: 5-hydroxytryptamine receptor 2B (Homo sapiens, UniProt P41595); conditions: Compound concentration 10.0 uM
[16] = molecular target: Ribosomal protein S6 kinase alpha-1 (Homo sapiens) (UniProt Q15418); assay: Rsk1(h) Millipore kinase panel; conditions: Compound concentration 1.0 uM
[17] = molecular target: Cyclin-dependent kinase 5/CDK5 activator 1 (Homo sapiens) (UniProt Q00535+Q15078); assay: CDK5/p35(h) Millipore kinase panel; format: protein-complex assay; conditions: Compound concentration 1.0 uM
[18] = molecular target: Tyrosine-protein kinase SYK (Homo sapiens) (UniProt P43405); assay: Syk(h) Millipore kinase panel; conditions: Compound concentration 1.0 uM
[19] = molecular target: Serine/threonine-protein kinase tousled-like 1 (Homo sapiens) (UniProt Q9UKI8); assay: TLK1(h) Millipore kinase panel; conditions: Compound concentration 1.0 uM
Sequence of Serine/threonine-protein kinase tousled-like 1 (Homo sapiens) (Q9UKI8 whole entry): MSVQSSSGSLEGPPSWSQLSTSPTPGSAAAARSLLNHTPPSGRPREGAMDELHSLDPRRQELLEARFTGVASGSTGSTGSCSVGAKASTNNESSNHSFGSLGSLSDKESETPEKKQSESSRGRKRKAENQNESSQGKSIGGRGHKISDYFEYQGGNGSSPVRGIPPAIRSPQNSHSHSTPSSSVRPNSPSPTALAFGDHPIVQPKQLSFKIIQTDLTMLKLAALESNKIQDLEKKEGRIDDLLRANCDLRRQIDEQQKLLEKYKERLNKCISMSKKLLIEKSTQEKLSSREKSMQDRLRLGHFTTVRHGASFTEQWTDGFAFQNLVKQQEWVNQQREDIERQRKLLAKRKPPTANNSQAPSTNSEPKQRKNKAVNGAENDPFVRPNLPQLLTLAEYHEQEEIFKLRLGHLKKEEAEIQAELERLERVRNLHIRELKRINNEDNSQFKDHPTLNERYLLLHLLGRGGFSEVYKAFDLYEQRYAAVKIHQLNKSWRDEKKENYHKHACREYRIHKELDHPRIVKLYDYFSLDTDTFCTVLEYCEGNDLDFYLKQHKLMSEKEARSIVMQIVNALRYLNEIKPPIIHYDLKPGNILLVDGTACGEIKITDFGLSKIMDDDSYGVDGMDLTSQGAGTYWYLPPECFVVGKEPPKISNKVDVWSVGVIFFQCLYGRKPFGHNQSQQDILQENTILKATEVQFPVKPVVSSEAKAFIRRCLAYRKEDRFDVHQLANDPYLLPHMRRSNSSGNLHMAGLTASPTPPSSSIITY

[20] = molecular target: G protein-coupled receptor kinase 5 (Homo sapiens) (UniProt P34947); assay: GRK5(h) Millipore kinase panel; conditions: Compound concentration 1.0 uM
Sequence of G protein-coupled receptor kinase 5 (Homo sapiens) (P34947 whole entry, looked up): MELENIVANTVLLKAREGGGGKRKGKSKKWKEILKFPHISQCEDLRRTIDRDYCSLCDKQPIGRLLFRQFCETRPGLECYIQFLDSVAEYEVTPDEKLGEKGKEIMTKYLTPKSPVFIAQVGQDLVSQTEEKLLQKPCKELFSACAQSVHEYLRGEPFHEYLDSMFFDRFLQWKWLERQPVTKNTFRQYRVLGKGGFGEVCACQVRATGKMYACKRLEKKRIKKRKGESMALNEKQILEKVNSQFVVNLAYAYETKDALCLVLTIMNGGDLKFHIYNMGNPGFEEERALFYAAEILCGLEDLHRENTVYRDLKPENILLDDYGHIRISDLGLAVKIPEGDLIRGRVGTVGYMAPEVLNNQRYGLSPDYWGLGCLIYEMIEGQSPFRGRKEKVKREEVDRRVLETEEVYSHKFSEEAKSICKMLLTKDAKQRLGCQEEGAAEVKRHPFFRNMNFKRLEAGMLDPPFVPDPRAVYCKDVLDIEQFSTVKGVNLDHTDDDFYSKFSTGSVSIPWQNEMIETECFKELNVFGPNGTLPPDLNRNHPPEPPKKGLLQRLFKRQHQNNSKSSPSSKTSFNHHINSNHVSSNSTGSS

[21] = molecular target: Serine/threonine-protein kinase mTOR (Homo sapiens) (UniProt P42345); assay: mTOR(h) Millipore kinase panel; conditions: Compound concentration 1.0 uM
[22] = molecular target: Rhodopsin kinase GRK1 (Homo sapiens) (UniProt Q15835); assay: GRK1(h) Millipore kinase panel; conditions: Compound concentration 1.0 uM
Homo sapiens [23] = organism: Homo sapiens; assay: CDK9/cyclinT1(h) Millipore kinase panel; conditions: Compound concentration 1.0 uM
[24] = molecular target: Serine/threonine-protein kinase PAK 2 (Homo sapiens) (UniProt Q13177); assay: PAK2(h) Millipore kinase panel; conditions: Compound concentration 1.0 uM
Sequence of Serine/threonine-protein kinase PAK 2 (Homo sapiens) (Q13177 whole entry): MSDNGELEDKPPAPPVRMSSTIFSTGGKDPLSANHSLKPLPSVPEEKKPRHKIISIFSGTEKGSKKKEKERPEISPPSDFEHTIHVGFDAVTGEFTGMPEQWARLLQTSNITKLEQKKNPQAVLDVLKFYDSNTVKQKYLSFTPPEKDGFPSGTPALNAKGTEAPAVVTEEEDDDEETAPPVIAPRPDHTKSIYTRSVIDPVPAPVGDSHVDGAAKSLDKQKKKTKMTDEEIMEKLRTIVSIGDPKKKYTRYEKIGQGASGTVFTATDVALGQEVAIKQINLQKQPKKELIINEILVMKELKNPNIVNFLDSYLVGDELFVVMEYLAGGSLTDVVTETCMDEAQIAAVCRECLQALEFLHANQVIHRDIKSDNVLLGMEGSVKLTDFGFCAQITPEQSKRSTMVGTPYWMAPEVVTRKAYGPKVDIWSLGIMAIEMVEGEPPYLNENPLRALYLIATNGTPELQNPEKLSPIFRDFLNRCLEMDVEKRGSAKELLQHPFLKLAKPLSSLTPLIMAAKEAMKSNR

[25] = molecular target: Mitogen-activated protein kinase 14 (Homo sapiens) (UniProt Q16539); assay: SAPK2a(h) Millipore kinase panel; conditions: Compound concentration 1.0 uM
[26] = molecular target: Serine/threonine-protein kinase PLK1 (Homo sapiens) (UniProt P53350); assay: Plk1(h) Millipore kinase panel; conditions: Compound concentration 1.0 uM
[27] = molecular target: Serine/threonine-protein kinase 4 (Homo sapiens) (UniProt Q13043); assay: MST1(h) Millipore kinase panel; conditions: Compound concentration 1.0 uM
[28] = molecular target: Epidermal growth factor receptor (Homo sapiens) (UniProt P00533); assay: EGFR(h) Millipore kinase panel; conditions: Compound concentration 1.0 uM
[29] = molecular target: Bone morphogenetic protein receptor type-2 (Homo sapiens) (UniProt Q13873); assay: BMPR2(h) Millipore kinase panel; conditions: Compound concentration 1.0 uM
Sequence of Bone morphogenetic protein receptor type-2 (Homo sapiens) (Q13873 whole entry): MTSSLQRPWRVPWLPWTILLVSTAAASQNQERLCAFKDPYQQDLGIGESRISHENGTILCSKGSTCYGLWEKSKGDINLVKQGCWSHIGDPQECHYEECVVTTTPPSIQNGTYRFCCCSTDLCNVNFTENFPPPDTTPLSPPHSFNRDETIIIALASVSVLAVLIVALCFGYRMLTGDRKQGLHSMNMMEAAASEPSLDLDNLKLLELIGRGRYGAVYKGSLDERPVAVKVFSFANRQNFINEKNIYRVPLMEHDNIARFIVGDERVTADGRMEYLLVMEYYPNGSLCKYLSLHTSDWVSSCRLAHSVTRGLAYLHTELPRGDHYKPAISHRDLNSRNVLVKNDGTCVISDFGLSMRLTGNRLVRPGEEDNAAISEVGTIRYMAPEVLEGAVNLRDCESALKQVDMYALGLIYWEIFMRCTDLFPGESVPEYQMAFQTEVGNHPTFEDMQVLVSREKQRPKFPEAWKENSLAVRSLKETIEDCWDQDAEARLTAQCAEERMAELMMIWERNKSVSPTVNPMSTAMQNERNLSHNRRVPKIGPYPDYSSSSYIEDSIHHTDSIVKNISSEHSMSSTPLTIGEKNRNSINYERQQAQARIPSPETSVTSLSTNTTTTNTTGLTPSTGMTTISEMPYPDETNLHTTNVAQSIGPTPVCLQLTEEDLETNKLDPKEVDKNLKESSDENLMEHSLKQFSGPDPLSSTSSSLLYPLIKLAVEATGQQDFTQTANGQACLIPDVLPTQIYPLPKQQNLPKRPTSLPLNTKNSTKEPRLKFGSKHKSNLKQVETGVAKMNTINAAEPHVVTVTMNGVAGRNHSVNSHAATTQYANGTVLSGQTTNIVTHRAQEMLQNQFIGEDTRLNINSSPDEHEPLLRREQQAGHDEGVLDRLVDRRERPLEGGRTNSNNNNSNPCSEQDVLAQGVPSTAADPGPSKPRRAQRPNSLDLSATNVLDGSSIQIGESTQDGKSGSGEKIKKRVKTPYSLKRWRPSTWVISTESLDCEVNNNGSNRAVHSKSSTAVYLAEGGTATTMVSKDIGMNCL

[30] = molecular target: T1, Alpha-2B adrenergic receptor (Homo sapiens); conditions: Compound concentration 10.0 uM; remark: listed apart in the source
[31] = molecular target: Purinergic P2Y (Rattus norvegicus) (UniProt O35811+Q9EPX4+P49651+Q63371+P41232+O35881+Q6GUG4); assay: Inhibition of Purinergic P2Y at compound concentration of 10.0 uM in the Eurofins-Panlabs radioligand binding assay (Eurofins_assay_268820); format: protein assay; set-up: ligand concentration 0.1 nM; conditions: Compound concentration 10.0 uM
[32] = molecular target: Serine/threonine-protein kinase 17B (Homo sapiens) (UniProt O94768); assay: DRAK2(h) Millipore kinase panel; conditions: Compound concentration 1.0 uM
[33] = molecular target: Thromboxane-A synthase (Homo sapiens) (UniProt P24557); assay: Inhibition of Thromboxane Synthase at compound concentration of 10.0 uM in the Eurofins-Panlabs enzyme assay (Eurofins_assay_194020); set-up: substrate with concentration; conditions: Compound concentration 10.0 uM
[34] = molecular target: Transient receptor potential cation channel subfamily M member 7 (Homo sapiens) (UniProt Q96QT4); assay: ChaK1(h) Millipore kinase panel; conditions: Compound concentration 1.0 uM
[35] = molecular target: Serine/threonine-protein kinase Nek6 (Homo sapiens) (UniProt Q9HC98); assay: NEK6(h) Millipore kinase panel; conditions: Compound concentration 1.0 uM
Sequence of Serine/threonine-protein kinase Nek6 (Homo sapiens) (Q9HC98 whole entry): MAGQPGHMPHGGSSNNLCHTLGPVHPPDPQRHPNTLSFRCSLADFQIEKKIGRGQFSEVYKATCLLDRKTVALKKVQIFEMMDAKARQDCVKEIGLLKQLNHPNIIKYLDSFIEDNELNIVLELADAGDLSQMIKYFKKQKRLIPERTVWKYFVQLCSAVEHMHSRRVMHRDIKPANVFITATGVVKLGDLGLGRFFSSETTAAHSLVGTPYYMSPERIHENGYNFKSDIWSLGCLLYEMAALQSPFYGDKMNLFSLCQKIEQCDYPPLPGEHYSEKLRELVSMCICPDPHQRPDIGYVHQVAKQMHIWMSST

[36] = molecular target: SRSF protein kinase 1 (Homo sapiens) (UniProt Q96SB4); assay: SRPK1(h) Millipore kinase panel; conditions: Compound concentration 1.0 uM
Sequence of SRSF protein kinase 1 (Homo sapiens) (Q96SB4 whole entry): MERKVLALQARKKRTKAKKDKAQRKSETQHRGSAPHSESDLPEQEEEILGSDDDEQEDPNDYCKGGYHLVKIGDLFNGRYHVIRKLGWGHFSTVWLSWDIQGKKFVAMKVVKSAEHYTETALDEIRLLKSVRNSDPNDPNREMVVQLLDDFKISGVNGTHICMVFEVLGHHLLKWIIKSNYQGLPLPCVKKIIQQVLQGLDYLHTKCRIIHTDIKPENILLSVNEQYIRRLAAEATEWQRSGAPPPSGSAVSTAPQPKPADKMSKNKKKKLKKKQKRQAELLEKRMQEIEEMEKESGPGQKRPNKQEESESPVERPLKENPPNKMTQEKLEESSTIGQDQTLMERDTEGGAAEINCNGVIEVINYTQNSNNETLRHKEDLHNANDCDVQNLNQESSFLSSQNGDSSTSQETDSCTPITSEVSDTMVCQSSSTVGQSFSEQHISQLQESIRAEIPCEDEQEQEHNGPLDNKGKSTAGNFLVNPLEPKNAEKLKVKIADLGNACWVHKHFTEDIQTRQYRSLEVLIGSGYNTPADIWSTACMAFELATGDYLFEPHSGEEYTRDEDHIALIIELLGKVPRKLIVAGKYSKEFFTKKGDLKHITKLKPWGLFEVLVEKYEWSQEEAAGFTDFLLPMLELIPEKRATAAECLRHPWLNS

Homo sapiens [37] = organism: Homo sapiens; assay: Cdc7/cyclinB(h) Millipore kinase panel; conditions: Compound concentration 1.0 uM
[38] = molecular target: Alpha-1A adrenergic receptor (Homo sapiens) (UniProt P35348); assay: Inhibition of Adrenergic alpha1A at compound concentration of 10.0 uM in the Eurofins-Panlabs radioligand binding assay (Eurofins_assay_203110); set-up: ligand concentration 0.25 nM; conditions: Rattus norvegicus; Compound concentration 10.0 uM
[39] = molecular target: Macrophage-stimulating protein receptor (Homo sapiens) (UniProt Q04912); assay: Ron(h) Millipore kinase panel; conditions: Compound concentration 1.0 uM
[40] = molecular target: Leucine-rich repeat serine/threonine-protein kinase 2 (Homo sapiens) (UniProt Q5S007); assay: LRRK2(h) Millipore kinase panel; conditions: Compound concentration 1.0 uM
[41] = molecular target: Tyrosine-protein kinase Fgr (Homo sapiens) (UniProt P09769); assay: Fgr(h) Millipore kinase panel; conditions: Compound concentration 1.0 uM
Sequence of Tyrosine-protein kinase Fgr (Homo sapiens) (P09769 2-529 limits assumed): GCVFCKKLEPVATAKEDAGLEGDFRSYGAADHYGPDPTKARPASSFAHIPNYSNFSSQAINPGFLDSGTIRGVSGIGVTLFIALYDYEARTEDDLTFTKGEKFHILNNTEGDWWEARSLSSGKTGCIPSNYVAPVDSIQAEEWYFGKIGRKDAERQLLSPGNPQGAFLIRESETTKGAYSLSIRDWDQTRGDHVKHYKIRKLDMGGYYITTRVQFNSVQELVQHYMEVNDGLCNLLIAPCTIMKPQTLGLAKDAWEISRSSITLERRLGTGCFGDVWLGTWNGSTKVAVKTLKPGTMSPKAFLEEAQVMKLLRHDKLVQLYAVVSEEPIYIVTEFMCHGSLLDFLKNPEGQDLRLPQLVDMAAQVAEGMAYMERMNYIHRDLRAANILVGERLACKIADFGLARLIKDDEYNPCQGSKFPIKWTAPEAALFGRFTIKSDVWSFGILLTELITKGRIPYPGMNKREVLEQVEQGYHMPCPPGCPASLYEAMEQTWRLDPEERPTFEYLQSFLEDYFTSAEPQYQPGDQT

[42] = molecular target: Insulin receptor (Homo sapiens) (UniProt P06213); assay: IR(h) Millipore kinase panel; conditions: Compound concentration 1.0 uM

How did the inhibition [1] turn out when `CC[C@@H](Nc1c(C#N)c(-c2ccc(-c3cccc(C)c3F)cc2)nc2cnccc12)C(=O)O` [BAY-091] was run?
The inhibition was 2.82%.

What about the inhibition [2] of the same compound?
Its inhibition is 6.25%.

And the inhibition [3]?
The inhibition was 12.4%.

What about the inhibition [4] of the same compound?
The inhibition was -3.58%.

And the inhibition [5]?
The inhibition was 6%.

What about the inhibition [6] of the same compound?
The inhibition was -2%.

And the inhibition [7]?
The inhibition was 3.26%.

And the inhibition [8]?
The inhibition was 14.2%.

What about the inhibition [9] of the same compound?
The inhibition was 1.03%.

And the inhibition [10]?
Its inhibition is -3.21%.

What about the inhibition [11] of the same compound?
The inhibition was 4.3%.

What about the inhibition [12] of the same compound?
The inhibition was 5.7%.

And the inhibition [13]?
Its inhibition is 1.36%.

And the inhibition [14]?
The inhibition was 2.75%.

What about the inhibition [15] of the same compound?
Its inhibition is 61%.

What about the inhibition [16] of the same compound?
The inhibition was -6.03%.

What about the inhibition [17] of the same compound?
Its inhibition is -0.03%.

And the inhibition [18]?
Its inhibition is 10.4%.

What about the inhibition [19] of the same compound?
Its inhibition is -0.87%.

What about the inhibition [20] of the same compound?
The inhibition was -3.49%.

And the inhibition [21]?
Its inhibition is 14.8%.

And the inhibition [22]?
Its inhibition is 1.52%.

And the inhibition (Homo sapiens [23])?
The inhibition was 11.8%.

What about the inhibition [24] of the same compound?
Its inhibition is 24.9%.

And the inhibition [25]?
Its inhibition is 2.76%.

And the inhibition [26]?
Its inhibition is 4.29%.

What about the inhibition [27] of the same compound?
Its inhibition is 20.6%.

And the inhibition [28]?
Its inhibition is 10.8%.

And the inhibition [29]?
Its inhibition is 4.45%.

And the inhibition [30]?
The inhibition was -1.14%.

And the inhibition [31]?
The inhibition was 31%.

What about the inhibition [32] of the same compound?
Its inhibition is 7.08%.

What about the inhibition [33] of the same compound?
Its inhibition is 98%.

What about the inhibition [34] of the same compound?
Its inhibition is 0.08%.

What about the inhibition [35] of the same compound?
The inhibition was 9.31%.

What about the inhibition [36] of the same compound?
The inhibition was 3.4%.

And the inhibition (Homo sapiens [37])?
The inhibition was 3.59%.

What about the inhibition [38] of the same compound?
Its inhibition is -4%.

And the inhibition [39]?
The inhibition was 0.76%.

What about the inhibition [40] of the same compound?
The inhibition was 12.9%.

And the inhibition [41]?
Its inhibition is 5.05%.

And the inhibition [42]?
The inhibition was -2.92%.
